Values quoted from earlier work as cited in patent US12576064B2, “Urolithin gummy (pectin) formulations” (Amazentis SA, priority 2023, dated 2026).

System: myotubes
Settings: in vitro

SMILES	mean diameter of myotubes
O=c1oc2cc(O)ccc2c2ccc(O)cc12 [Urolithin A]	not seen
O=c1oc2cc(O)ccc2c2ccccc12 [Urolithin B]	increased
